How the values were obtained:
MipZ K13A = test: Transient kinetic analysis of mant nucleotide binding to MipZ K13A; set-up: species or system Caulobacter crescentus; details: for Kd: calculated KD = koff/kon
Text: (§1) Once released from the dimeric complex, MipZ monomers must undergo nucleotide exchange to enter the next reaction cycle (Figure 2A). To clarify the requirements for the exchange reaction, we studied the nucleotide binding kinetics of MipZ by monitoring its interaction with methylanthraniloyl (mant)-labeled ADP and ATP analogs (Figure S3). Since the mant group blocks dimer formation, our measurements specifically focused on the initial nucleotide-binding step without interference from subsequent reactions.
(§2) Figure S3. Steady-state and transient kinetic analysis of nucleotide binding to MipZ, Related to Table 2.
(§3) (A) Fluorescence emission spectra of mant-ATP. MipZ (1 µM) and/or mant-ATP (60 µM) were mixed in buffer BC containing no (+ Mg2+) or 10 mM (- Mg2+) EDTA. Emission spectra were recorded in a PC1 photon-counting spectrofluorimeter (ISS) using fluorescence resonance energy transfer (FRET) and an excitation wavelength of 290 nm.
(§4) (B) Association of MipZ with mant nucleotides.
(§5) (data not shown), necessitating the use of ADP and ATP analogues that carried a fluorescent methylanthraniloyl (mant) group attached to the 2'- or 3'-hydroxy group of the ribose moiety. Due to the bulkiness of the mant group and a critical role of these hydroxy groups in MipZ dimerization, the modified nucleotides are predicted to block dimer formation, consistent with their failure to be hydrolyzed by MipZ or mediate MipZ self-association in the SPR assay (data not shown). This circumstance allowed us to focus the measurements on the initial nucleotide binding step without interference from subsequent reactions.
(§6) Interaction of the mant group with the protein surface led to a marked increase in fluorescence (panel A). Consistent with the easy accessibility of the nucleotide-binding site and the lack of major conformational changes, the transients recorded after rapid mixing of MipZ with mant nucleotides could be fitted to single-exponential equations, indicating single-step binding reactions.
(§7) Shown is a typical curve representing the change in mant fluorescence upon binding of mant-ATP (30 µM) to MipZ (1 µM).
(§8) Fitting of the data yielded a pseudo-first order rate constant (kobs) of 4.7 s-1.
(§9) (C) Determination of the second-order association rate constants (kon). The pseudo-first order rate constants for the association of […]
(§10) determining the second-order rate constant of the association reaction. Shown is a representative graph in which the kobs values measured for mant-ATP were plotted against the corresponding mant-ATP concentrations. Fitting of the data to the linear function kobs=kon[mant-ATP]+koff yielded a value of 6.8 x 104 M-1s-1 for kon.
(§11) (D) Dissociation of mant nucleotides from MipZ. In order to determine the dissociation rate constants (koff), we monitored the displacement of mant-labeled nucleotides from MipZ by an excess of unlabeled nucleotide. All transients obtained could be fitted to single-exponential functions. Shown is a typical curve representing the change in mant fluorescence upon dissociation of mant-ATP (30 µM) from MipZ (1 µM) in the presence of 2 mM ATP. […]
(§12) […]
(§13) (Murshudov et al. 1997) for apo-MipZ in crystal form 2. Transient kinetic analysis The structure of apo-MipZ in crystal form 1 was solved Transient kinetic experiments were conducted at 30°C by multiple-wavelength anomalous diffraction (MAD), in a Hi-Tech Scientific SF-61MX stopped-flow spectro- […]

MipZ-D42A [1] = test: Transient kinetic analysis of mant nucleotide binding to MipZ D42A; set-up: species or system Caulobacter crescentus; details: for Kd: calculated KD = koff/kon
Text: as §1, §2, §3, §4, §5, §6, §7, §8, §9, §10, §11, §12, §13

MipZ-K18Q = test: Transient kinetic analysis of mant nucleotide binding to MipZ K18Q; set-up: species or system Caulobacter crescentus
Text: as §1, §2, §3
(B) Association of MipZ with mant nucleotides. […]
as §6
Shown is a typical curve representing the change in mant fluorescence upon binding of mant-ATP (30 µM) to MipZ (1 µM). […]
determining the second-order rate constant of the association reaction. Shown is a representative graph in which the kobs values measured for mant-ATP were plotted against the corresponding mant-ATP concentrations. […]
as §11, with “All transients obtained could be fitted to single-exponential functions.” left out

MipZ [2] = test: Transient kinetic (stopped-flow) analysis of mant nucleotide binding to wild-type MipZ; set-up: species or system Caulobacter crescentus; details: for kon: 30°C, buffer P; for Kd: calculated KD = koff/kon; for koff: displacement by excess unlabeled nucleotide
Text: as §1, §2, §3, §4, §5, §6, §7, §8, §9, §10, §11, §12, §13

MipZ G14V = test: Transient kinetic analysis of mant nucleotide binding to MipZ G14V; set-up: species or system Caulobacter crescentus; details: for Kd: calculated KD = koff/kon
Text: as §1, §2, §3, §4, §5, §6, §7, §8, §9, §10, §11, §12, §13

[3] = target: the molecule itself; test: SPR; 1 mM ATPγS (printed 0.18 min-1)
[4] = target: the molecule itself; test: SPR; 1 mM ATP (printed 0.83 min-1)
[5] = target: the molecule itself; test: SPR; ATP; printed as 0.83 min-1
[6] = target: the molecule itself; test: SPR; ATP; printed as 0.067 min-1
[7] = target: the molecule itself; test: SPR; 1 mM ATP (printed 0.067 min-1)
MipZ [8] = target: T1, MipZ (Caulobacter crescentus, UniProt Q9A6C9 1-278); test: SPR; 2 mM ATP, Mg2+; koff 1.5 min-1 (Fig S5C); SPR: buffer P2 or buffer BC (Mg2+-containing) with 2 mM nucleotide, composition not in material; EMSA: 1.25 mM nucleotide, 270 nM-5.6 uM protein, room temperature; details: protein: recombinant; chain copies: 2; label: biotin (immobilized); blunt
T1 sequence: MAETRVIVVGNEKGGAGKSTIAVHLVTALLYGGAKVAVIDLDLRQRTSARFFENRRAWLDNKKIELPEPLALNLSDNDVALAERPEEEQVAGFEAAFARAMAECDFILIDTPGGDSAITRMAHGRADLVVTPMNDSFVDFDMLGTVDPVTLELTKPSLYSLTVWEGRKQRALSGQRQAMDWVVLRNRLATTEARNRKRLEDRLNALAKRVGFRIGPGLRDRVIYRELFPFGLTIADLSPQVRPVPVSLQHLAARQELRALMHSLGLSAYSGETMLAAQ

ParB = target: T2, ParB (Caulobacter crescentus, UniProt B8GW30 1-304); test: SPR; ParB alone; SPR: buffer P2 or buffer BC (Mg2+-containing) with 2 mM nucleotide, composition not in material; EMSA: 1.25 mM nucleotide, 270 nM-5.6 uM protein, room temperature; details: protein: recombinant; tags: none (native ParB); chain copies: 2; label: biotin (immobilized); blunt
T2 sequence: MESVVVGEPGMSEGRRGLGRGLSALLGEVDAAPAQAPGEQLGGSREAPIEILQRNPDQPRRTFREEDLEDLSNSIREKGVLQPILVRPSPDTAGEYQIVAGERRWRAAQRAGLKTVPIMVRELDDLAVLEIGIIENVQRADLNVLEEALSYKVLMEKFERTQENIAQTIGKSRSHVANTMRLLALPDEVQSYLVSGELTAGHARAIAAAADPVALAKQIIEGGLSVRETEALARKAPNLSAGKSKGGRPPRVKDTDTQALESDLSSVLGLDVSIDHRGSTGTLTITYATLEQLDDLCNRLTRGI

MipZ-D42A [9] = target: T3, MipZ-D42A (Caulobacter crescentus, UniProt Q9A6C9 1-278, D42A); test: SPR; ATP; slower dissociation than WT; SPR: buffer P2 or buffer BC (Mg2+-containing) with 2 mM nucleotide, composition not in material; EMSA: 1.25 mM nucleotide, 270 nM-5.6 uM protein, room temperature; details: protein: recombinant; chain copies: 2; label: biotin (immobilized); blunt
T3 sequence: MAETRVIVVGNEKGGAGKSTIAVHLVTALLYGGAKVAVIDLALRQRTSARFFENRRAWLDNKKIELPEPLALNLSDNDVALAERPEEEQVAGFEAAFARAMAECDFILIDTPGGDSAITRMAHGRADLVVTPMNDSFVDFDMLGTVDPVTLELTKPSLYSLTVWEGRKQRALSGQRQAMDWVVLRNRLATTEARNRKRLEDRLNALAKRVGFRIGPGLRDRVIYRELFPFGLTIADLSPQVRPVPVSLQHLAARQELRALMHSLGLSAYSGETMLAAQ

MipZ [10] = target: T1, MipZ; test: SPR; ATP; SPR: buffer P2 or buffer BC (Mg2+-containing) with 2 mM nucleotide, composition not in material; EMSA: 1.25 mM nucleotide, 270 nM-5.6 uM protein, room temperature; details: protein: recombinant; chain copies: 2; label: biotin; blunt
MipZ-D42A [11] = target: T3, MipZ-D42A; test: as above; details: protein: recombinant; chain copies: 2; label: biotin; blunt

Molecule: CNc1ccccc1C(=O)O[C@H]1[C@@H](O)[C@H](n2cnc3c(N)ncnc32)O[C@@H]1COP(=O)(O)OP(=O)(O)OP(=O)(O)O [mant-ATP]
- koff (MipZ K13A): 2.1 s⁻¹
- kon (MipZ K13A): 56000 M⁻¹ s⁻¹
- Kd (MipZ K13A): 38 µM
- koff (MipZ-D42A [1]): 4.5 s⁻¹
- kon (MipZ-D42A [1]): 78000 M⁻¹ s⁻¹
- Kd (MipZ-D42A [1]): 58 µM
- koff (MipZ-K18Q): 7.5 s⁻¹
- kon (MipZ-K18Q): 62000 M⁻¹ s⁻¹
- Kd (MipZ-K18Q; calculated KD = koff/kon): 121 µM
- kon (MipZ [2]; WT MipZ): 68000 M⁻¹ s⁻¹
- Kd (MipZ [2]; WT MipZ): 31 µM
- koff (MipZ [2]; WT MipZ): 2.1 s⁻¹
- pseudo-first order rate constant (kobs) (MipZ [2]; mant-ATP 30 µM, MipZ 1 µM): 4.7 s⁻¹
- koff (MipZ G14V): 0.2 s⁻¹
- kon (MipZ G14V): 157000 M⁻¹ s⁻¹
- Kd (MipZ G14V): 1.3 µM

Molecule: CNc1ccccc1C(=O)O[C@H]1[C@@H](O)[C@H](n2cnc3c(N)ncnc32)O[C@@H]1COP(=O)(O)OP(=O)(O)O [mant-ADP]
- koff (MipZ K13A): 3.5 s⁻¹
- kon (MipZ K13A): 86000 M⁻¹ s⁻¹
- Kd (MipZ K13A): 41 µM
- koff (MipZ-D42A [1]): 3.8 s⁻¹
- kon (MipZ-D42A [1]): 55000 M⁻¹ s⁻¹
- Kd (MipZ-D42A [1]): 69 µM
- average lifetime (τ = 1/koff) of the MipZ⋅nucleotide complex (MipZ [2]; WT MipZ): about 0.3 s
- kon (MipZ [2]; WT MipZ): 118000 M⁻¹ s⁻¹
- Kd (MipZ [2]; WT MipZ): 26 µM
- koff (MipZ [2]; WT MipZ): 3.1 s⁻¹
- koff (MipZ G14V): 0.9 s⁻¹
- kon (MipZ G14V): 205000 M⁻¹ s⁻¹
- Kd (MipZ G14V): 4.5 µM

B1: MipZ (wild type), hexahistidine-tagged (natural protein)
chain: MAETRVIVVGNEKGGAGKSTIAVHLVTALLYGGAKVAVIDLDLRQRTSARFFENRRAWLDNKKIELPEPLALNLSDNDVALAERPEEEQVAGFEAAFARAMAECDFILIDTPGGDSAITRMAHGRADLVVTPMNDSFVDFDMLGTVDPVTLELTKPSLYSLTVWEGRKQRALSGQRQAMDWVVLRNRLATTEARNRKRLEDRLNALAKRVGFRIGPGLRDRVIYRELFPFGLTIADLSPQVRPVPVSLQHLAARQELRALMHSLGLSAYSGETMLAAQ
- koff [3]: 0.003 s⁻¹
- koff [4]: 0.0138 s⁻¹
- koff [5]: 0.0138 s⁻¹

B2: MipZ-D42A, hexahistidine-tagged (natural protein)
chain: MAETRVIVVGNEKGGAGKSTIAVHLVTALLYGGAKVAVIDLALRQRTSARFFENRRAWLDNKKIELPEPLALNLSDNDVALAERPEEEQVAGFEAAFARAMAECDFILIDTPGGDSAITRMAHGRADLVVTPMNDSFVDFDMLGTVDPVTLELTKPSLYSLTVWEGRKQRALSGQRQAMDWVVLRNRLATTEARNRKRLEDRLNALAKRVGFRIGPGLRDRVIYRELFPFGLTIADLSPQVRPVPVSLQHLAARQELRALMHSLGLSAYSGETMLAAQ
- koff [6]: 0.00112 s⁻¹
- koff [7]: 0.00112 s⁻¹

B3: ran2 (dsDNA)
DNA 1: GTCGACAGAGTTCGCTAACATCGAGC
DNA 2: GCTCGATGTTAGCGAACTCTGTCGAC
- binding result (MipZ [8]): binds
- binding result (ParB): no binding
- binding result (MipZ-D42A [9]): binds

B4: parSWT (dsDNA)
DNA 1: GAGGCTTGTTTCACGTGAAACATCGG
DNA 2: CCGATGTTTCACGTGAAACAAGCCTC
- binding result (MipZ [10]): binds
- binding result (MipZ-D42A [11]): binds

B5: parSmt (dsDNA)
DNA 1: GAGGCTTGTTTGAGCTCAAACATCGG
DNA 2: CCGATGTTTGAGCTCAAACAAGCCTC
- binding result (MipZ [10]): binds
- binding result (MipZ-D42A [11]): binds

B6: ran1 (dsDNA)
DNA 1: GAGGCAGACTAGATCTTCTAGTTCGG
DNA 2: CCGAACTAGAAGATCTAGTCTGCCTC
- binding result (MipZ [10]): binds
- binding result (MipZ-D42A [11]): binds

Reference: article PMC3355305, “Localized Dimerization and Nucleoid Binding Drive Gradient Formation by the Bacterial Cell Division Inhibitor MipZ” (Molecular Cell, 2012)
